Laboratory results taken from US20110201562A1, “FORMULATIONS AND METHOD FOR TREATING BALDNESS” (SEDERMA, priority 2005, published 2011).
Blank lines part the entries; values can stand above or below the compound they belong to.

What was measured:
[1] = system: blood vessels in the dermis; test: Vasodilation on the scalp (statement, no method)
5α-reductase = test: Inhibition of 5α-reductase (statement, no method); format: biochemical
hair follicles = test: Cultured hair follicles: growth monitored over 14 days; format: cell-based; conditions: 2 ppm in medium
Procedure: Excess hair follicles prepared in the context of a micrograft transplantation session were collected for culturing in a medium similar to that reported in, and herein encorporated by reference, Philpott et al., Whole Hair Follicule Culture, Dermatologic Clinics 595 (Oct. 14, 1996). Said hair follicles were then individually incubated at 37° C. under an air plus CO2 (at 5%) atmosphere for 14 days. The explants were then divided into four groups: 1) a control group for the culture medium alone, 2) a positive control group which was exposed to a medium of 2 ppm Minoxidil®, 3) a test group exposed to the peptide biotinyl-GHK in a medium of 2 ppm biotinyl-GHK, and 4) a test group exposed to the peptide biotinyl-GHK in a medium of 5 ppm biotinyl-GHK. The culture medium was changed every 2 days. General morphology was observed on Day 1 and Day 14. Concomitantly, a fraction of the follicles were frozen for the purposes of conducting more advanced immunohistochemical studies. Growth in the follicles was monitored using a digital camera with images being taken on Day 0, Day 3, Day 5, Day 7, Day 11, and Day 14.

Compound: O=c1cc(-c2ccc(O)cc2)oc2cc(O)cc(O)c12 [Apigenin]
- effect of use on the scalp on blood vessels [1]: dilates the blood vessels in the dermis

- inhibitory action on the enzyme 5α-reductase (5α-reductase): strong inhibitory action
Compound: CC1(C)CC[C@]2(C(=O)O)CC[C@]3(C)C(=CC[C@@H]4[C@@]5(C)CC[C@H](O)C(C)(C)[C@@H]5CC[C@]43C)[C@@H]2C1 [oleanolic acid]

Compound: Nc1cc(N2CCCCC2)nc(N)[n+]1[O-] [Minoxidil®, Minoxidil, reference compound]
- more growth than observed from the control group (hair follicles): 58%
